Values joined by “and” are separate entries in the source; they are usually repeats but may differ in a detail not shown here. Equal entries are not always repeated.
Columns and labels:
prostate cancer tumors = assay: Ki-67+ cells in miR-141-overexpressing tumors; type: in vivo
CD44 = CD44 mRNA and protein levels in prostate cancer cells; type: cell-based, human; conditions: bulk Du145 and PC3 cells or CD44+ Du145 cells
Protocol: FIGS. 3A-3J show partial suppression of epithelial to mesenchymal transition by miR-141 and CD44 as a direct target of miR-141. FIGS. 3A-3B show qPCR analysis of epithelial to mesenchymal transition markers in bulk (FIG. 3A) or CD44^+ (FIG. 3B) Du145 cells transfected with the miR-141 oligos (30 nM; 48 h). Results were presented as the relative expression levels over the cells transfected with the NC oligos. […] GAPDH was used as control and the relative protein levels after normalizing to GAPDH and NC controls were indicated below each lane. […] Shown below is the actual sequence in the region with the mutated miR-141 binding sequence indicated in grey (below). […] Shown are representative images. […] Du145 cells were co-transfected with NC or miR-141 oligos (30 nM) together with pBabe empty vector or pBabe-CD44 vector. After 48 h, cells were harvested for invasion assays. Bars, mean±SD. *, P<0.05; **, P<0.01.
Total RNA was extracted using microRNA isolation kit (Life Technologies) according to the manufacturer's instructions. microRNA qPCRs were performed using TaqMan microRNA assays (Life Technologies). qPCR data for microRNAs were normalized to RNU48 whereas qPCR data for mRNAs were normalized to GAPDH.

Du145 cells = assay: Whole-genome RNA-Seq; type: cell-based, human
Protocol: (§1) Du145 and LAPC9 cells were transfected with 30 nM of miR-141 or negative control oligos for 48 h. Total RNA was purified using RNeasy mini kit (Qiagen, Hilden, Germany). The overexpression of miR-141 was validated by qPCR. 100 ng of total RNA samples was then converted to cDNA using a NuGEN Ovation RNA-Seq System v2 according to the manufacturer's protocol (NuGEN, San Carlos, Calif.). NuGEN-amplified double-stranded cDNAs were fragmented into ˜180 base pair (bp) using a Covaris system (Covaris, Woburn, Mass.). Fragmented cDNAs were run on a SPRI-TE library construction system (Beckman Coulter, Fullerton, Calif.), and during the adaptor ligation step, uniquely indexed NEXTflex adapters (Bioo Scientific, Austin, Tex.) were used for each of the samples to allow for multiplexing. Adapter-ligated libraries were enriched by PCR using a KAPA library amplification kit (KAPA Biosystems, Wilmington, Mass.) (1 cycle at 98° C. for 45 seconds; 7 cycles at 98° C. for 15 seconds, 65° C. for 30 seconds, and 72° C. for 30 seconds; 1 cycle at 72° C. for 1 minute), and purified with AMPureXP beads (Beckman Coulter, Pasadena, Calif.). The purified libraries were quantified using a KAPA library quantification kit. The libraries were loaded on cBot (Illumina, San Diego, Calif.) at final concentration of […] to perform cluster generation, followed by 2×76 bp sequencing on HiSeq 2000 (Illumina, San Diego, Calif.).
(§2) Sequencing reads were mapped to reference human genome sequence ([…] [hg19] assembly by TopHat (Version 2.0.6). The number of fragments in each known gene from RefSeq database (downloaded from UCSC Genome Browser on Mar. 9, 2012) was enumerated using htseq-count from HTSeq package (version 0.5.4p9). Genes with less than 10 fragments in all the samples were removed before differential expression analysis. The differential expression between conditions was statistically assessed by R/Bioconductor package edgeR (version 3.0.8). Genes with FDR (false discovery rate) of ≤0.05 and >200 bp were called as differentially expressed.
(§3) For Gene Ontology (GO) analysis, IPA (Ingenuity Pathway Analysis; Qiagen, Valencia, Calif.) and GSEA (Gene Set Enrichment Analysis; Broad Institute) were performed. The standard procedure was followed (www.broadinstitute.org/gsea/doc/GSEAUserGuideFrame.html) as described by GSEA user guide and used curated gene set C2 of the Molecular Signature Database (MSigDB) version 4.0 to compute overlaps between gene set and gene sets in MSigDB. Some of the datasets presented in the text are annotated here.
(§4) The authors' in-house scripts (12) was utilized for sequence alignment and peak calling. The miR-200a CLIP-Seq results containing the binding information were further extracted and merged with Du145 or LAPC9 RNA-Seq data by gene symbol.

LAPC9 cells = assay: Whole-genome RNA-Seq; type: cell-based, human
Protocol: as §1, §2, §3, §4

[1] = merged with miR-200a CLIP-Seq data

miR-141: miR-141 mirVana mimics (Life Technologies); microRNA-141 oligonucleotide may have SEQ ID NO: 1; in some experiments over-expressed by lentiviral vectors (UAACACUGUCUGGUAAAGAUGG; listed as RNA, further chemistry not given here) [miR-141 mirVana mimics (Life Technologies); in some experiments over-expressed by lentiviral vectors]
Ki-67+ cells (prostate cancer tumors): reduced | CD44 mRNA level (CD44): significantly reduced | CD44 protein level (CD44): significantly reduced | TGFB2, ZEB1, MAP2K4, and VIM expression (Du145 cells): downregulated | ZEB2, TWIST2, and SANI2 expression (Du145 cells): inconsistent changes | epithelial markers including E-Cadherin, Claudin family members and cytokeratins (KRT) (Du145 cells): strongly induced | down-regulated genes (Du145 cells; FDR<0.05): 949 | up-regulated genes (Du145 cells; FDR<0.05): 1,304 | transcripts having binding sites to miR-200a/miR-141 (Du145 cells; RNA-Seq DEGs merged with miR-200a CLIP-Seq data): 532 | down-regulated transcripts having binding sites to miR-200a/miR-141 (Du145 cells; [1]): 263 | upregulated transcripts having binding sites to miR-200a/miR-141 (Du145 cells; [1]): 269 | TGFB2, ZEB1, MAP2K4, VIM, NYH10, FN1 and many other mesenchymal genes (LAPC9 cells): downregulated | epithelial markers including E-Cadherin, Claudin members and KRTs (LAPC9 cells): prominently upregulated | down-regulated genes (LAPC9 cells; FDR<0.05): 459 | up-regulated genes (LAPC9 cells; FDR<0.05): 265 | putative direct targets of miR-141 (genes) (LAPC9 cells; RNA-Seq merged with miR-200a CLIP-Seq data): 157 and ~150
